Patent publication US9573970B2, “4-{4-[(1E)-4-(2,9-diazaspiro[5.5]undec-2-yl)but-1-en-1-yl]-2-methylbenzyl}-5-(propan-2-yl)-1H-pyrazol-3-yl beta-D glucopyranoside acetate” (Eli Lilly and Company, priority 2013, dated 2017)

Tested on: male rats with STZ-induced diabetes
Assay: Mixed meal tolerance test (MTT) in male rats with streptozotocin induced diabetes
Format: in vivo, rat
Settings: 60 mg/kg oral, mean ± SE
Procedure: The test compound is formulated by adding a vehicle of 1% hydroxyethylcellulose (HEC), 0.25% Tween® 80 w/antifoam 0.05% to preweighed test compound to make a 2.5 mg/ml solution. The mixture is probe sonicated for approximately 30 seconds. The resulting solution is used as a stock solution, from which the lower concentration dose solutions are prepared by dilution with the vehicle. STZ, 45 mg/kg, is formulated by dissolving in 0.1M Citrate buffer in 3 ml aliquots and stored in the dark on ice, when not being administered. A high fat content mixed meal (Bio-Serv® Rodent Diet F3282 High Fat) comprising Fat Calories (60%), Carbohydrate Calories (26%) and Protein Calories (15%) is utilized. Single housed Sprague Dawley rats are allowed to acclimate for a period of 3 to 7 days.
In an effort to ensure that the animals have not recently fed, STZ is administered in the afternoon, approximately six hours into the light cycle (lights on 6 am, lights off 6 pm). The animals are anesthetized with isoflurane and STZ is delivered via tail vein injection. Once animals regain consciousness, they are returned to housing and allowed to recover for 7 days.
On the two days immediately prior to the meal tolerance test (MTT) all rats are given a small amount (2-4 g) of the F3282 diet, so they became acclimated to it prior to receiving it during the experiment. On the evening before the experiment, the rats are moved into clean cages and their food is removed. The following morning animals are weighed and a blood sample is taken by tail snip for glucose measurement (Abbott AlphaTRAK™ glucometers: code 29) Animals are grouped n=6 based on fasted body weight and glucose. Thirty minutes after the test compound is orally administered, two glucose measurements are collected. Then a five gram pellet of Bio-Serv® diet 3282 is given. After 20 minutes remaining food is taken away and weighed. Blood samples are taken at 20, 40, 60 and 120 minutes for glucose measurement.

C[C@H]1O[C@H](O[C@H]2[C@H](O)[C@@H](O)[C@@H](O[C@H]3[C@H](O)[C@@H](O)C(O)O[C@@H]3CO)O[C@@H]2CO)[C@H](O)[C@@H](O)[C@@H]1N[C@H]1C=C(CO)[C@@H](O)[C@H](O)[C@H]1O (stereo partly drawn) [Acarbose, reference compound]
Glucose value, 0 min. (30 min after compound, before meal): 124 ± 16.9 mg/dL
Baseline Adjusted AUC (glucose) (MTT): 23877 ± 4649
Glucose value, 20 min.: 181 ± 22.8 mg/dL
Glucose value, 40 min.: 301.3 ± 51.2 mg/dL
Glucose value, 60 min.: 371.5 ± 63.9 mg/dL
Glucose value, 120 min.: 433.7 ± 83 mg/dL
